Consider 8 compounds from US20250064947A1, “CYTOTOXICITY TARGETING CHIMERAS FOR FIBROBLAST ACTIVATION PROTEIN-EXPRESSING CELLS” (Glaxosmithkline Intellectual Property Development Limited, priority 2022, published 2025).

The experiment deals with T1, FAP (Homo sapiens, UniProt Q12884).
T1 construct: Target cells: WI-38 cells (typically 1000-20,000 cells per well); endogenous in cells; host or cells: WI-38 cells
T1 sequence (Q12884 1-760): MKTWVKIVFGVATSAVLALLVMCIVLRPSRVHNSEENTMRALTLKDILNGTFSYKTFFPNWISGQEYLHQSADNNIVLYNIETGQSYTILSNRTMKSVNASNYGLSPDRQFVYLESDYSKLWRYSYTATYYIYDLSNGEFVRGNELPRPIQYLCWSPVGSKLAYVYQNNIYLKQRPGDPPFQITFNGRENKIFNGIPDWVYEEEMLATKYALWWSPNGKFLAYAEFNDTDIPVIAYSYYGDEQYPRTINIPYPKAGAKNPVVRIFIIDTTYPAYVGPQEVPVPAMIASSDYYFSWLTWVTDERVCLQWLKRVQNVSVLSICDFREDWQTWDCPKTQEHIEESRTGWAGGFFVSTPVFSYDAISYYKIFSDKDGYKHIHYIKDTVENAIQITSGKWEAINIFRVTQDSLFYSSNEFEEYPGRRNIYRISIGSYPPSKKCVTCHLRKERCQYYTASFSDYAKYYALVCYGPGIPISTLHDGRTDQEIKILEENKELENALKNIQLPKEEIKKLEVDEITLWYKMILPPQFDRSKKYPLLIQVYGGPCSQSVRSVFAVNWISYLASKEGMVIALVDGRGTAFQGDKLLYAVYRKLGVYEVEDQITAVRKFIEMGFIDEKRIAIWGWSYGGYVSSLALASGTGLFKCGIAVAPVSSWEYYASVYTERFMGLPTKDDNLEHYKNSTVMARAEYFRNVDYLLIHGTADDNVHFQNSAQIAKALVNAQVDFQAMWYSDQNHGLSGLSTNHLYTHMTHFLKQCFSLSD
Briefly: Antibody dependent cellular cytotoxicity (ADCC) reporter assay. It is filed as cell-based. The following applies: WI-38 target cells; Jurkat FcγRIIIa NFAT-luciferase reporter cells; with anti-cotinine antibody (SEQ ID NO: 11/12); 12-18 hours; average if more than one run; read-out: ADCC Reporter Assay pEC50 (converted). On the procedure: An antibody dependent cellular cytotoxicity (ADCC) reporter assay was conducted using the following four assay components: (i) ARM compound of Formula (I) targeting FAP (concentrations ranging from […]); (ii) anti-cotinine antibody having a heavy chain sequence of SEQ ID NO: 11 and a light chain sequence of SEQ ID NO: 12 (rabbit variable region with human IgG1 Fc domain containing DE mutation (S239D/I332E)) (concentrations ranging from 0.01 μg/mL 200 μg/mL); (iii) Target cells: WI-38 cells (typically 1000-20,000 cells per well); and (iv) Reporter cells—Jurkat cells engineered to express FcγRIIIa with a reporter gene luciferase under the control of the NFAT promoter (typically 3000-75,000 cells per well). Reagents were combined in final volume of 20 μL in 384—well tissue culture treated plate. All four assay components were incubated together for about 12-18 hours. Thereafter, BioGlo Detection reagent (Promega) was added to the wells to lyse the cells and provide a substrate for the luciferase reporter protein.
Luminescence signal was measured on a microplate reader capable of measuring luminescence and signal:background was calculated by dividing the signal of a test well by the signal obtained when no compound of formula (I) was included in the assay. EC50 calculations were done using Graphpad Prism Software, specifically a nonlinear regression curve fit (Y=Bottom+(Top−Bottom)/(1+10^((Log EC50−X)*HillSlope))).
ARMs compounds of Formula (I) were tested for ADCC activity in the above assay in one or more experimental runs and the results are shown in Table 3 below. Potency of the compounds of Formula (I) is reported as a pEC50 values. The pEC50 value is the negative log of the EC50 value, wherein the EC50 value is half maximal effective concentration measured in molar (M). For compounds tested in more than one experimental run, the pEC50 value is reported as an average.
For orientation: Reporter assays use an easily measured gene product as a stand-in for the process of interest.

Take `CN(CCNC(=O)CCOCCOCCOCCOCCOCCOCCOCCOCCOCCOCCOCCOCCOCCOCCOCCOCCOCCOCCOCCOCCNC(=O)[C@H]1CC(=O)N(C)[C@@H]1c1cccnc1)c1ccc2nccc(C(=O)NCC(=O)N3CC(F)(F)C[C@H]3C#N)c2c1` [Example 6, N-(2-((S)-2-cyano-4,4-difluoropyrrolidin-1-yl)-2-oxoethyl)-6-(methyl(1-((2S,3S)-1-methyl-5-oxo-2-(pyridin-3-yl)pyrrolidin-3-yl)-1,65-dioxo-5,8,11,14,17,20,23,26,29,32,35,38,41,44,47,50,53,56,59,62-icosaoxa-2,66-diazaoctahexacontan-68-yl)amino)quinoline-4-carboxamide]: the EC50 is 12.6 nM. With `CN(CCNC(=O)CCOCCOCCOCCOCCOCCOCCOCCOCCOCCOCCOCCOCCOCCOCCOCCOCCOCCOCCOCCOCCOCCOCCOCCOCCNC(=O)[C@H]1CC(=O)N(C)[C@@H]1c1cccnc1)c1ccc2nccc(C(=O)NCC(=O)N3CC(F)(F)C[C@H]3C#N)c2c1` [Example 7, N-(2-((S)-2-Cyano-4,4-difluoropyrrolidin-1-yl)-2-oxoethyl)-6-(methyl(1-((2S,3S)-1-methyl-5-oxo-2-(pyridin-3-yl)pyrrolidin-3-yl)-1,77-dioxo-5,8,11,14,17,20,23,26,29,32,35,38,41,44,47,50,53,56,59,62,65,68,71,74-tetracosaoxa-2,78-diazaoctacontan-80-yl)amino)quinoline-4-carboxamide], the EC50 was 5.01 nM. With `CN1C(=O)C[C@H](C(=O)NCCOCCOCCOCCOCCOCCOCCOCCOCCOCCOCCOCCOCCOCCOCCOCCNC(=O)COc2ccc3nccc(C(=O)NCC(=O)N4CCC[C@@H]4C#N)c3c2)[C@H]1c1cccnc1` [Example 8, N-(2-((R)-2-cyanopyrrolidin-1-yl)-2-oxoethyl)-6-((1-((2S,3S)-1-methyl-5-oxo-2-(pyridin-3-yl)pyrrolidin-3-yl)-1,51-dioxo-5,8,11,14,17,20,23,26,29,32,35,38,41,44,47-pentadecaoxa-2,50-diazadopentacontan-52-yl)oxy)quinoline-4-carboxamide] the figure was 3.98 nM; with `CN1C(=O)C[C@H](C(=O)NCCOCCOCCOCCOCCOCCOCCOCCOCCOCCOCCOCCOCCOCCOCCOCCOc2ccc3c(C(=O)NCC(=O)N4CCC[C@H]4C#N)ccnc3c2)[C@H]1c1cccnc1` [Example 9, N-(2-((S)-2-cyanopyrrolidin-1-yl)-2-oxoethyl)-7-((1-((2S,3S)-1-methyl-5-oxo-2-(pyridin-3-yl)pyrrolidin-3-yl)-1-oxo-5,8,11,14,17,20,23,26,29,32,35,38,41,44,47-pentadecaoxa-2-azanonatetracontan-49-yl)oxy)quinoline-4-carboxamide], greater than 1000 nM.

`CN1C(=O)C[C@H](C(=O)NCCOCCOCCOCCOCCOCCOCCOCCOCCOCCOCCOCCOCCOCCOCCOCCNC(=O)COc2ccc3c(C(=O)NCC(=O)N4CCC[C@H]4C#N)ccnc3c2)[C@H]1c1cccnc1` [Example 10, N-(2-((S)-2-cyanopyrrolidin-1-yl)-2-oxoethyl)-7-((1-((2S,3S)-1-methyl-5-oxo-2-(pyridin-3-yl)pyrrolidin-3-yl)-1,51-dioxo-5,8,11,14,17,20,23,26,29,32,35,38,41,44,47-pentadecaoxa-2,50-diazadopentacontan-52-yl)oxy)quinoline-4-carboxamide]: the EC50 is greater than 1000 nM.

As for `CN1C(=O)C[C@H](C(=O)NCCOCCOCCOCCOCCOCCOCCOCCOCCOCCOCCOCCOCCOCCOCCOCCNC(=O)COc2ccc3c(C(=O)NCC(=O)N4CC(F)(F)C[C@H]4C#N)ccnc3c2)[C@H]1c1cccnc1` [Example 11, N-(2-((S)-2-cyano-4,4-difluoropyrrolidin-1-yl)-2-oxoethyl)-7-((1-((2S,3S)-1-methyl-5-oxo-2-(pyridin-3-yl)pyrrolidin-3-yl)-1,51-dioxo-5,8,11,14,17,20,23,26,29,32,35,38,41,44,47-pentadecaoxa-2,50-diazadopentacontan-52-yl)oxy)quinoline-4-carboxamide], the EC50 was greater than 1000 nM.

`CN1C(=O)C[C@H](C(=O)NCCOCCOCCOCCOCCOCCOCCOCCOCCOCCOCCOCCOCCOCCOCCOCCOCCOCCOCCOCCOCCOCCOCCOCCNC(=O)COc2ccc3c(C(=O)NCC(=O)N4CCC[C@H]4C#N)ccnc3c2)[C@H]1c1cccnc1` [Example 12, N-(2-((S)-2-cyanopyrrolidin-1-yl)-2-oxoethyl)-7-((1-((2S,3S)-1-methyl-5-oxo-2-(pyridin-3-yl)pyrrolidin-3-yl)-1,75-dioxo-5,8,11,14,17,20,23,26,29,32,35,38,41,44,47,50,53,56,59,62,65,68,71-tricosaoxa-2,74-diazahexaheptacontan-76-yl)oxy)quinoline-4-carboxamide]: the EC50 was 1 nM. On to `CN1C(=O)C[C@H](C(=O)NCCOCCOCCOCCOCCOCCOCCOCCOCCOCCOCCOCCOCCOCCOCCOCCOCCOCCOCCOCCOCCOCCOCCOCCNC(=O)COc2ccc3c(C(=O)NCC(=O)N4CC(F)(F)C[C@H]4C#N)ccnc3c2)[C@H]1c1cccnc1` [Example 13, N-(2-((S)-2-cyano-4,4-difluoropyrrolidin-1-yl)-2-oxoethyl)-7-((1-((2S,3S)-1-methyl-5-oxo-2-(pyridin-3-yl)pyrrolidin-3-yl)-1,75-dioxo-5,8,11,14,17,20,23,26,29,32,35,38,41,44,47,50,53,56,59,62,65,68,71-tricosaoxa-2,74-diazahexaheptacontan-76-yl)oxy)quinoline-4-carboxamide], for which the EC50 is 1 nM.
